Source: patent US6291678A, “Process for the preparation of chiral keto-heterocycles of basic amino acids” (Warner-Lambert Company, priority 1998, dated 2001)

How the values were obtained:
rat carotid artery = test: Rat arterial model of thrombosis (FeCl3 injury of the carotid artery), markers of anticoagulant activity in vivo; details: for Fold Shift in aPTT: activated partial thromboplastin time at 30 minute time point, control aPTT 15 s; for Fold Shift in aPTT / Fold Shift in TT: loading dose 0.75 mg/kg plus infusion of 50 μg/kg/min; for Fold Shift in MOT: mean occlusion time, loading dose 0.75 mg/kg plus continual infusion of 50 μg/kg/min, control MOT 20 minutes; for Fold Shift in TT: thrombin time at 30 minute time point, control TT 30 s
Protocol: The ability of compounds to affect markers of anticoagulant activity in vivo were assessed in a rat arterial model of thrombosis. This model requires injury of the rat carotid artery by the application of a FeCl3 solution. Typically test substances are administered by applying a loading dose of 0.75 mg/kg plus continual infusion of 50 μg/kg/min.
The fold shift in aPTT and TT are measured at a 30 minute time point.

thrombin = thrombin (Homo sapiens, UniProt P00734); test: Inhibition of thrombin catalytic activity (cleavage of chromogenic substrate S-2238); type: biochemical; details: S-2238 substrate; 60 minutes incubation at room temperature; absorbance at 405 nm over 5 minutes
Protocol: Typically thrombin in 10 mM HEPES, 100 mM NaCl, 0.05% BSA, and 0.1% PEG-8000 and the test substance in DMSO are incubated for 60 minutes at room temperature.

trypsin = biological target: T1, trypsin (Bos taurus, UniProt P00760); test: Trypsin inhibitory activity (chromogenic substrate S2222); type: biochemical; details: protocol similar to thrombin
T1 sequence (P00760 24-246): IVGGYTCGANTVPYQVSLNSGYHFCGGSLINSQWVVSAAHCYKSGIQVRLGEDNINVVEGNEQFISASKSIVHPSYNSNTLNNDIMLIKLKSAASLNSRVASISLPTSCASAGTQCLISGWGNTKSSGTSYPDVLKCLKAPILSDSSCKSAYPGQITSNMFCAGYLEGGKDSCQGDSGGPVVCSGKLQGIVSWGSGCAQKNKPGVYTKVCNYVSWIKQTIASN
Protocol: The ability of compounds to act as inhibitors of thrombin catalytic activity is assessed by determination of that concentration of test substance that inhibits by 50% (IC50) the ability of thrombin to cleave the chromogenic substrate S-2238 (H-D-Phe-L-Pip-L-Arg-p-nitroanilide.2 HCl). Typically thrombin in 10 mM HEPES, 100 mM NaCl, 0.05% BSA, and 0.1% PEG-8000 and the test substance in DMSO are incubated for 60 minutes at room temperature. To this mixture is added S-2238 and the velocity of S-2238 hydrolysis measured by observing the intensity of absorbance at 405 nm over 5 minutes.
A similar protocol is followed to access the trypsin inhibitory activity of the test substances, except thrombin is replaced by trypsin and the chromogenic substrate is S2222 (N-Bz-L-Ile-L-Glu-L-Gly-L-Arg-p-nitroanilide.HCl).

Compound	Fold Shift in aPTT (rat carotid artery)	Fold Shift in MOT (rat carotid artery)	Fold Shift in TT (rat carotid artery)	IC50 (thrombin)	IC50 (trypsin)
N=C(N)NCCC[C@H](NC(=O)[C@@H]1CC[C@H]2CN(C(=O)CCc3ccccc3)CC(=O)N21)C(=O)c1nccs1 [A]	3.2	2.4	13	5 nM	1 nM
N=C(N)N1CCC[C@@H](C[C@H](NC(=O)[C@@H]2CC[C@H]3CN(C(=O)CCc4ccccc4)CC(=O)N32)C(=O)c2nccs2)C1 [B]	3.1	> 3	15	30 nM	4350 nM
